Experiment [1] relates to bovine capillary endothelial cells (BCE). The experiment is described as follows: BCE proliferation assay (FGF-stimulated, CyQUANT). Conditions: 72 h. The class given is cell-based. How it is done:
(§1) We performed proliferation assays to determine the effect of the synthetic EC binding peptides on the proliferation of endothelial cells. In these assays the proliferation of bovine capillary endothelial (BCE), human microvascular endothelial (HMVEC) and human vascular endothelial cells (HUVEC) was stimulated by FGF and VEGF165 as indicated on FIG. 4. The effect of increasing concentration of synthetic EC binding peptides was measured on the proliferation of the stimulated cells. After the 72 h incubation the media was removed, the plates were washed two times with PBS and frozen at −80° C. Proliferation of the BCE cells was accessed using the CyQUANT® fluorescent cell proliferation assay kit according to the manufacturer's recommendations.
(§2) In the MSA-peptide fusions the peptide sequence was inserted into a cysteine constrained loop between amino acids 53 and 62. […]
The transfected COS7-L cells were cultured in defined serum free media (VP-SFM). […] The concentration of the albumin proteins was determined by Western blot analysis of each preparation using a rabbit anti-MSA antibody and using purified MSA of known concentration to generate a standard curve. Following development of the blot and exposure to film the autoradiographs were analyzed using the Gel Doc 1000 image analysis system and Molecular Analyst software (BioRad). […]

The next experiment deals with HUVEC cells. In words: HUVEC proliferation assay (FGF-stimulated). The format is cell-based, human. How it is done: as §1, §2
The transfected COS7-L cells were cultured in defined serum free media (VP-SFM). […] The concentration of the albumin proteins was determined by Western blot analysis of each preparation using a rabbit anti-MSA antibody and using purified MSA of known concentration to generate a standard curve. Following development of the blot and exposure to film the autoradiographs were analyzed using the Gel Doc 1000 image analysis system and Molecular Analyst software (BioRad).

“MSA: full-length mouse serum albumin (negative control)”: the “inhibition of BCE proliferation (in words, active range)” value in experiment [1] is on record as “did not significantly affect”. Further, in the experiment with HUVEC cells, the “inhibition of HUVEC proliferation (in words, active range)” value is “did not significantly affect”.

With “MSA-myc: MSA with Myc epitope peptide EQKLISEEDL inserted between Glu 57 and Ser 58 (negative control)”, the “inhibition of BCE proliferation (in words, active range)” value in experiment [1] is reported as “did not significantly affect”. Besides, the “inhibition of HUVEC proliferation (in words, active range)” value in the experiment on HUVEC cells is given as “did not significantly affect”.

For the origin of these results see patent US20030166004A1, “Endothelial-cell binding peptides for diagnosis and therapy” (priority 2001, published 2003).
